Laboratory results as given in ChEMBL document CHEMBL5356966, “A dual mechanism with H2S inhibition and membrane damage of morusin from Morus alba Linn. against MDR-MRSA” (2024).
Values after ≈ are worked out from the molar mass of the structure shown. Active and inactive are the calls of the source. No cut-off for these calls is given here.

Experiments:
Staphylococcus aureus [1] = assay: Antibacterial activity methicillin-resistant Staphylococcus aureus 003 assessed as inhibition of H2S production at 50 uM; type: functional
Staphylococcus aureus [2] = assay: Antibacterial activity methicillin-resistant Staphylococcus aureus 011 assessed as inhibition of bacterial growth incubated for 24 hrs by CLSI based analysis; type: functional
Staphylococcus aureus [3] = assay: Antibacterial activity methicillin-resistant Staphylococcus aureus 003 assessed as inhibition of bacterial growth incubated for 24 hrs by CLSI based analysis; type: functional
Staphylococcus aureus [4] = assay: Antibacterial activity Staphylococcus aureus assessed as inhibition of bacterial growth incubated for 24 hrs by CLSI based analysis; type: functional
Enterococcus = assay: Antibacterial activity vancomycin-resistant Enterococcus assessed as inhibition of bacterial growth incubated for 24 hrs by CLSI based analysis; type: functional
Staphylococcus aureus [5] = assay: Bactericidal activity against Staphylococcus aureus at 4 times MIC measured after 24 hrs by time kill assay; type: functional, organism-based
Staphylococcus aureus [6] = assay: Bactericidal activity against methicilin-resistant Staphylococcus aureus 003 at 4 times MIC measured after 24 hrs by time kill assay; type: functional, organism-based
Staphylococcus aureus [7] = assay: In vivo antibacterial activity against methicilin-resistant Staphylococcus aureus infected in ICR mouse skin infection model assessed as wound area at 40 mg/kg, ip preadministered with compound for 24 hrs followed by bacterial infection and measured after 3 days; type: functional; conditions: time 96 hrs
Escherichia coli = assay: Antibacterial activity Escherichia coli assessed as inhibition of bacterial growth incubated for 24 hrs by CLSI based analysis; type: functional
Acinetobacter baumannii = assay: Antibacterial activity Acinetobacter baumannii assessed as inhibition of bacterial growth incubated for 24 hrs by CLSI based analysis; type: functional

Compound	inhibition at 50 µM (Staphylococcus aureus [1]) [%]	MIC (Staphylococcus aureus [2]) [µg/mL]	MIC (Staphylococcus aureus [3]) [µg/mL]	MIC (Staphylococcus aureus [4]) [µg/mL]	MIC (Enterococcus) [µg/mL]	Activity (Staphylococcus aureus [5])	Activity (Staphylococcus aureus [6])	Activity (Staphylococcus aureus [7]) [cm2]	MIC (Escherichia coli) [µg/mL]	MIC (Acinetobacter baumannii) [µg/mL]
NOCC(=O)O [CARBOXYMETHOXYLAMINE]	30									
COc1cccc(OC)c1C(=O)N[C@@H]1C(=O)N2[C@@H]1SC(C)(C)[C@@H]2C(=O)[O-].[Na+]		> 128	> 128	1	32					
CO[C@@]1(NC(=O)Cc2cccs2)C(=O)N2C(C(=O)O)=C(COC(N)=O)CS[C@@H]21 [CEFOXITIN]		> 128	> 128	2 (≈ 4.68 µM)	> 128	inactive	inactive	0.28		
CC(C)CCCCC(=O)N[C@@H](CCN)C(=O)N[C@H](C(=O)N[C@@H](CCN)C(=O)N[C@H]1CCNC(=O)[C@H]([C@@H](C)O)NC(=O)[C@H](CCN)NC(=O)[C@H](CCN)NC(=O)[C@H](CC(C)C)NC(=O)[C@@H](Cc2ccccc2)NC(=O)[C@@H](CCN)NC1=O)[C@@H](C)O.O=S(=O)(O)O		16	16	8	128				0.25	1
